Entries after “also recorded” stand apart in the source; their conditions may differ.
Columns and labels:
[1] = Metabolic stability in human liver microsomes with NADPH; format: in vitro ADME; conditions: pH 7.4, 1 μM compound, read-out: percent remaining
Method: One potential liability when using chemical probes in vivo is lack of metabolic stability which structurally inactivates the compound before it can reach its molecular target. […] Percent of drug remaining over time was determined by liquid chromatography–tandem mass spectrometry analysis (LC/MS/MS).
Metabolic stability assay was conducted in mouse or human liver microsomes as we have described previously with minor modifications. Briefly, the reaction was carried out using potassium phosphate buffer (100 mM, pH 7.4), in the presence of an NADPH regenerating system (compound final concentration was 1 μM; 0.2 mg/mL microsomes). Compound disappearance was monitored over time using a liquid chromatography and tandem mass spectrometry (LC/MS/MS) method. Chromatographic analysis was performed using an Accela ultra high-performance system consisting of an analytical pump and an autosampler coupled with a TSQ Vantage mass spectrometer (Thermo Fisher Scientific Inc., Waltham, MA). […] The mobile phase consisted of 0.1% formic acid in acetonitrile and 0.1% formic acid in water with gradient elution.

[2] = test system: primary astrocytes; assay: Inhibition of EV release from primary astrocytes (FBS withdrawal, nanoparticle tracking); format: cell-based, rat; conditions: 2 h treatment, dose range of concentrations
Method: Independent laboratories have shown that pharmacological and genetic inhibition of nSMase2 blocks EV secretion from glial cells. […] Two hours after treatment, EVs were isolated from the media and quantified by nanoparticle tracking analysis. […] Cells were fixed and immunofluorescence labeling for GFAP was performed.
Media was collected after 2 h incubation and centrifuged at 2700 × g for 15 min at 4 °C. Supernatant was collected and the number of extracellular vesicles (EVs) was quantified using ZetaView Nanoparticle Tracker. The mean concentration of EVs/mL (±SEM) was calculated from 4 replicate experiments. […] Astrocytes grown in complete medium were used as no treatment control. Cells were fixed and stained with anti-GFAP antibody (1:500, Sigma). Fluorescence intensity was measured using Image J. (C) Quantitation of fluorescence in (B). Bar graph represents background corrected mean fluorescence intensity measured from 100 astrocytes per condition. Error bars represent standard error of mean. One-way ANOVA followed by Tukey’s posthoc test was performed.
Potential inhibition of test compounds on EV release from primary astrocytes was carried out as previously described (Dickens et al., 2017). Briefly, rat primary astrocytes were seeded onto 6-well plates at a density of 20,000 cells/well. Twenty-four hours after seeding, astrocytes were washed with PBS and the medium changed to media without FBS. Absence of FBS mimics a trophic factor withdrawal stimulus causing EVs to be released from astrocytes via an nSMase2-dependent pathway. […] The supernatant was collected and the number of EVs quantified using ZetaView Nanoparticle Tracker (Particle Metrix GmBH, Meerbusch, Germany) and the corresponding ZetaVeiw software (8.03.04.01). Nanosphere size standard 100 nm (Thermo Scientific) was used to calibrate the instrument prior to sample readings. […] For each sample 1 mL of the supernatant was injected into the sample-carrier cell and the particle count measured at 5 positions, with 2 cycles of reading per position. […] Mean concentration of EVs/mL (±SEM) was calculated from 4 replicates.

For COc1cc(-c2nc(-c3cccs3)c(-c3ccccc3)[nH]2)cc(OC)c1O [DPTIP, 2,6-Dimethoxy-4-(5-Phenyl-4-Thiophen-2-yl-1H-Imidazol-2-yl)-Phenol], which remaining at 1 h, 1 μM [1] is on record?
The remaining at 1 h, 1 μM was 100%.

What about the “effect on EV release from primary astrocytes” value [2] of the same compound?
Its value is “dose-dependently inhibited EV release; also recorded: inhibited EV release from astrocytes in a dose dependent manner”.
